Blank lines part the entries; values can stand above or below the compound they belong to.
Columns and labels:
TRPM8 = details: cited from earlier work; for IC50: Figure 1, literature values; for EC50: Figure 1, literature value
[1] = test system: MDA-MB-231 (breast adenocarcinoma); experiment: SRB cytotoxicity assay, MDA-MB-231; assay type: cell-based; details: 72 h, SRB; for TGI MDA-MB-231: total growth inhibition; for TGI MDA-MB-231 / CC50: unit inferred; for GI50 / CC50: Homo sapiens, MDA-MB-231; for CC50: read-out: LC50 MDA-MB-231
Procedure: (§1) Human tumor cell lines used in this study were purchased from the ATCC. A-549 (CCL-185), lung carcinoma; HT-29 (HTB-38), colorectal adenocarcinoma; MDA-MB-231 (HTB-26), breast adenocarcinoma; PSN1, pancreas adenocarcinoma.
(§2) All cell lines were maintained in DMEM (Dulbecco’s Modified Eagle's Medium) culture medium supplemented with 10% FBS (Fetal Bovine Serum), 100 Units/mL penicillin/streptomycin at 37 °C, 5% CO2 and 95% humidity.
(§3) Triplicate cultures were incubated for 72 h in the presence or absence of test compounds in dose–response curves (10 concentrations, typically ranging from 10 to 0.0026 µg/mL). A colorimetric assay using sulforhodamine B (SRB) was adapted for quantitative measurement of cell growth and cytotoxicity. A more detailed information on this assay is provides in the supplementary information. GI50 is the compound concentration that produces 50% inhibition on cell growth as compared to control cells.
(§4) In vitro bioassays for the detection of antitumor activity
(§5) The aim of this assay is to evaluate the in vitro cytostatic (ability to delay or arrest tumor cell growth) or cytotoxic (ability to kill tumor cells) activity of the samples […]
(§6) Name Nº ATCC Species Tissue Characteristics
(§7) A549 CCL-185 human lung lung carcinoma (NSCLC)
(§8) HT29 HTB-38 human colon colorectal adenocarcinoma
(§9) MDA-MB-231 HTB-26 human breast breast adenocarcinoma
(§10) PSN1 CRM-CRL-3211 human pancreas pancreas adenocarcinoma […]
(§11) A colorimetric assay, using Sulforhodamine B (SRB) reaction has been adapted to provide a quantitative measurement of cell growth and viability (following the technique described by Skehan et al. J. Natl. Cancer Inst. 1990, 82, 1107-1112 […]
(§12) This form of assay employs 96-well cell culture microplates following the standards of the American National Standards Institute and the Society for Laboratory […]
(§13) used in this study were obtained from the American Type Culture Collection (ATCC) and derive from different types of human cancer.
(§14) A549, HT29, MDA-MB-231 and PSN1 cells were maintained in Dulbecco’s
(§15) Modified Eagle Medium (DMEM) supplemented with 10% Fetal Bovine Serum (FBS), 2mM L-glutamine, 100 U/mL penicillin, and 100 U/mL streptomycin at 37 °C, 5% CO2 and 98% humidity. For the experiments, cells were harvested from subconfluent cultures using trypsinization and resuspended in fresh medium before counting and […]
(§16) A549, HT29, MDA-MB-231 and PSN1 cells were seeded in 96 well microtiter plates, at 5000 cells per well in aliquots of 150 µL, and allowed to attach to the plate surface for 18 hours (overnight) in drug free medium. After that, one control (untreated) plate of each cell line was fixed (as described below) and used for time zero reference value. Culture plates were then treated with test compounds (50 µL aliquots of 4X stock […]
(§17) solutions in complete culture medium plus 4% DMSO) using ten 2/5 serial dilutions (concentrations ranging from 10 to 0.003 µg/mL) and triplicate cultures (1% final concentration in DMSO). After 72 hours treatment, the antitumor effect was measured by using the SRB methodology: Briefly, cells were washed twice with PBS, fixed for 15 min in 1% glutaraldehyde solution at room temperature, rinsed twice in PBS, and stained in 0.4% SRB solution for 30 min at room temperature. Cells were then rinsed several times with 1% acetic acid solution and air-dried at room temperature. SRB was then extracted in 10 mM trizma base solution and the absorbance measured in an automated spectrophotometric plate reader at 490 nm.
(§18) Effects on cell growth and survival were estimated by applying the NCI algorithm (Boyd MR and Paull KD. Drug Dev. Res. 1995, 34, 91-109, DOI:10.1002/ddr.430340203). The values obtained in triplicate cultures were fitted by nonlinear regression to a four-parameters logistic curve by nonlinear regression analysis. . Using the absorbance measurements [time zero, (Tz), control growth, (C), and test growth in the presence of drug at the ten concentration levels (Ti)], the […]

rat TRPM8 channel = target: T1, rat TRPM8 channel (Rattus norvegicus, UniProt Q8R455); experiment: Ca2+ microfluorometry, menthol-induced Ca2+ influx in HEK293 cells expressing rat TRPM8; assay type: cell-based; details: 100 µM menthol, HEK-rTRPM8; for % Blockade 5 µM: 5 µM compound; for % Blockade 50 µM: 50 µM compound; for IC50: Ca2+ microfluorometry
T1 construct: expressed in transfected cells; host or cells: HEK293 (stably transfected)
T1 sequence (Q8R455 whole entry): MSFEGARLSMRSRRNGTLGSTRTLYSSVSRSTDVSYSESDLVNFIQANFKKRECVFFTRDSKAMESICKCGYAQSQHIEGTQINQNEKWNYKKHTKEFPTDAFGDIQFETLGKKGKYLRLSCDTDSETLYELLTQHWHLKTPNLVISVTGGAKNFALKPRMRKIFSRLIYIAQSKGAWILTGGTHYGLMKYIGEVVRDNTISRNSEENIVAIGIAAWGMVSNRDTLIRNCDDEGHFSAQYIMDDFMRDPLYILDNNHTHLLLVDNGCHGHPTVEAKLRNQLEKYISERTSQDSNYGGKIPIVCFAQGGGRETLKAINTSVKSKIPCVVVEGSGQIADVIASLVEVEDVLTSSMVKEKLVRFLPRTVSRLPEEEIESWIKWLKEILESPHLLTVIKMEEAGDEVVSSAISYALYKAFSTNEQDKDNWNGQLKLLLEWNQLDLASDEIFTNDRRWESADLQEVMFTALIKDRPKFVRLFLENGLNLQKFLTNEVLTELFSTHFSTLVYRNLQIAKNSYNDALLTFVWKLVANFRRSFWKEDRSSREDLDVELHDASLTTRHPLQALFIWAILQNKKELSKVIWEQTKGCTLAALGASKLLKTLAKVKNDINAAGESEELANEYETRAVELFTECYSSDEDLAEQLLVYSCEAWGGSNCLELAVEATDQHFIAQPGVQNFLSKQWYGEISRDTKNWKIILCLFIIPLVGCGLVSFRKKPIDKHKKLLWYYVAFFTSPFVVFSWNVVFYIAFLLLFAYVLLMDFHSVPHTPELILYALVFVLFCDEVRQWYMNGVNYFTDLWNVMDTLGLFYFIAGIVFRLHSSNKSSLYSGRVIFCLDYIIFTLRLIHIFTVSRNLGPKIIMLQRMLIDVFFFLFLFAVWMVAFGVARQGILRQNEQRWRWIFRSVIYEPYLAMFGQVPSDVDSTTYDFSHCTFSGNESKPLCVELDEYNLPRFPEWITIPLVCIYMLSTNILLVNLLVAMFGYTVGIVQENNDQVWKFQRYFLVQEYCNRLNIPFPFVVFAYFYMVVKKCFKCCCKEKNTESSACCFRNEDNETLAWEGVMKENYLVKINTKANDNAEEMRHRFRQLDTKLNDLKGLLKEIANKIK
Procedure: The ability to inhibit menthol-induced Ca^2+ intracellular influx into the cytosol on HEK293 cells heterologously expressing the rat TRPM8 channel was measured and compared to that of AMTB, a well-known TRPM8 antagonist. Representative recordings of fluorescence obtained in microfluorometry experiments for selected compounds are in Supplementary Fig. S3.
(§19) Human embryonic kidney cell line (HEK) stably transfected with rTRPM8 or h-TRPV1 were used as previously described. Briefly, cells were seeded in 96-well plates at a cell density of 30,000 cells 2 days before treatment. Buffer used was HBBS (in mM): 138 NaCl, 5.33 KCl, 1.26 CaCl2, 0.5 MgCl-6H2O, 0.4 MgSO4-7H2O, 4 NaHCO3 0.44 KH2PO4, 0.3 Na2HPO4, pH 7.4. The day of treatment the medium was replaced with 100 µL of the dye loading solution Fluo-4 NW supplemented with probenecid 2.5 mM. After incubation, plates were transferred to a fluorescence plate reader (Polastar BMG). In the experimental protocol, the baseline fluorescence was recorded ([…]) for 3 cycles. After, vehicle, compound at different concentrations and the corresponding antagonist, 10 µM AMTB for TRPM8 or 10 µM Ruthenium Red for TRPV1 were added to the well. Fluorescence intensity was recorded during 7 cycles more. Finally, the agonist 100 µM menthol for TRPM8 or 1 µM capsaicin for TRPV1 was added and fluorescence intensity was recorded during 10 cycles more.
The degree of inhibition of TRPM8 channel gating was calculated by comparison to calcium increase signal elicited by test substances and menthol at 100 µM. Decrease of menthol signal was expressed as percentage of inhibition (%). All data are expressed as mean ± standard deviation (SD). Each condition was assessed by triplicate (n = 3) in 3 independent experiments (N = 3). Z-factor was calculated in each assay using the following equation: […]. In all the experiments Z-factor was ≥ 0.5. To calculate IC50, normalized responses (%) versus log [µM] were adjusted to a non-linear fit with variable slope, a four-parameter dose–response curve following curve Y = 100/(1 + 10^((Log IC50-X)*HillSlope)) where […].

[2] = test system: PSN1 (pancreas adenocarcinoma); experiment: SRB cytotoxicity assay, PSN1; assay type: cell-based; details: 72 h, SRB; for TGI PSN1: total growth inhibition; for TGI PSN1 / CC50: unit inferred; for GI50 / CC50: Homo sapiens, PSN1; for CC50: read-out: LC50 PSN1
Procedure: as §1, §2, §3, §4, §5, §6, §7, §8, §9, §10, §11, §12, §13, §14, §15, §16, §17, §18

hTRPV1 channels = target: T2, hTRPV1 channels (Homo sapiens, UniProt Q8NER1); experiment: Ca2+ microfluorometry in HEK cells expressing hTRPV1 (capsaicin); assay type: cell-based; details: 1 µM capsaicin; for TRPV1 Blockade (%) 5 µM: 5 µM compound; for TRPV1 Blockade (%) 50 µM: 50 µM compound
T2 construct: expressed in transfected cells; host or cells: HEK (stably transfected)
T2 sequence (Q8NER1 whole entry): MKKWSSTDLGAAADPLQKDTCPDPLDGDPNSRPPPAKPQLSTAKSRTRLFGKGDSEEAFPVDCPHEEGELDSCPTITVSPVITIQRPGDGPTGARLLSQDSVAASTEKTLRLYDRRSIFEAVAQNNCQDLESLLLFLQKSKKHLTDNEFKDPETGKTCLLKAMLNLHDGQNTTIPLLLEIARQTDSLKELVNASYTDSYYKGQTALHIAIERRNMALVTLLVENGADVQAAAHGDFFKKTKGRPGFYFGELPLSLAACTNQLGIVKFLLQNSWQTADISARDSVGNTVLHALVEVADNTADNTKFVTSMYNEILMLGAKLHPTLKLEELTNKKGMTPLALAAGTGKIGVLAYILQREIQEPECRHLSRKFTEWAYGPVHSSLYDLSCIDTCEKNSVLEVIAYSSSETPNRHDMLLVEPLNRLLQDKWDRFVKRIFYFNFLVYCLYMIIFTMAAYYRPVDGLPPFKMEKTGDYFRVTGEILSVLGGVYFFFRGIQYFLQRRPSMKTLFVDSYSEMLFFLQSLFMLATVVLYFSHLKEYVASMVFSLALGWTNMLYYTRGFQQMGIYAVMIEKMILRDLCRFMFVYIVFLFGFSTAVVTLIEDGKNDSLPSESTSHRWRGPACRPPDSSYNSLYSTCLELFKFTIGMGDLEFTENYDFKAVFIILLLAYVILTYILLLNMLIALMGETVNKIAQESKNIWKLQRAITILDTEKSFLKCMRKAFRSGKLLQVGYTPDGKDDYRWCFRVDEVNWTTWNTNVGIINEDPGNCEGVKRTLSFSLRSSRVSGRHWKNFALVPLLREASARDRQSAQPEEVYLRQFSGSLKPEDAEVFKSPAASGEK
Procedure: β-Lactam and 2-ketopiperazine derivatives were also assayed for their activity in cell expressing hTRPV1 channels. No significant antagonist activity was measured for any derivatives within both chemotypes (Supplementary Tables S1, S2, and Fig. S3), indicating their selectivity for TRPM8 channels.
as §19
Table S1. Activity at hTRPV1 of β–lactams derived from phenylalaninol conjugates
Compd. Isomer Isomer TRPV1 Blockade (%)
Table S2. Activity at hTRPV1 of 2-ketopiperazines derived from phenylalaninol

[3] = test system: A549 (lung carcinoma, NSCLC); experiment: SRB cytotoxicity assay, A549; assay type: cell-based; details: 72 h, SRB; for TGI A549: total growth inhibition; for TGI A549 / CC50: unit inferred; for GI50 / CC50: Homo sapiens, A549; for CC50: read-out: LC50 A549
Procedure: as §1, §2, §3, §4, §5, §6, §7, §8, §9, §10, §11, §12, §13, §14, §15, §16, §17, §18

[4] = test system: HT29 (colorectal adenocarcinoma); experiment: SRB cytotoxicity assay, HT29; assay type: cell-based; details: 72 h, SRB; for TGI HT29: total growth inhibition; for TGI HT29 / CC50: unit inferred; for GI50 / CC50: Homo sapiens, HT-29; for CC50: read-out: LC50 HT29
Procedure: as §1, §2, §3, §4, §5, §6, §7, §8, §9, §10, §11, §12, §13, §14, §15, §16, §17, §18

Compound: Cc1cccc(COc2ccccc2C(=O)N(CCCN)Cc2cccs2)c1 [AMTB]
IC50 (TRPM8): 0.16 µM

Compound: COC(=O)[C@H](Cc1c[nH]c2ccccc12)N(Cc1ccccc1)Cc1ccccc1 [Bn2-Trp-OMe]
IC50 (TRPM8): 0.0002 µM

% Blockade 5 µM (rat TRPM8 channel): 101.4 ± 6.1% | % Blockade 50 µM (rat TRPM8 channel): 106 ± 5.06% | IC50 (rat TRPM8 channel): 1.8 ± 1.9 µM | TRPV1 Blockade (%) 5 µM (hTRPV1 channels): 6.3±2.1% | TRPV1 Blockade (%) 50 µM (hTRPV1 channels): 7.8±4.1%
Compound: O=C(OCc1ccccc1)C(Cc1ccccc1)N1C[C@@H](Cc2ccccc2)N(C(=O)OCc2ccccc2)CC1=O (some centres unmarked) [Compound 15ab]
TGI MDA-MB-231 [1]: > 17.8 µM | GI50 [1]: > 17.8 µM | CC50 [1]: > 17.8 µM | TGI PSN1 [2]: > 17.8 µM | GI50 [2]: 6.4 µM | CC50 [2]: > 17.8 µM | TGI A549 [3]: > 17.8 µM | GI50 [3]: > 17.8 µM | CC50 [3]: > 17.8 µM | TGI HT29 [4]: > 17.8 µM | GI50 [4]: > 17.8 µM | CC50 [4]: > 17.8 µM

% Blockade 5 µM (rat TRPM8 channel): 101.7 ± 5.3% | % Blockade 50 µM (rat TRPM8 channel): 101.2 ± 11.4% | IC50 (rat TRPM8 channel): 0.16 µM | TRPV1 Blockade (%) 5 µM (hTRPV1 channels): 9.2±2.1% | TRPV1 Blockade (%) 50 µM (hTRPV1 channels): 13.9±4.8%
Compound: C[C@@H]1C(=O)N(C(Cc2ccccc2)C(=O)OCc2ccccc2)C[C@@H](Cc2ccccc2)N1C(=O)OCc1ccccc1 (some centres unmarked) [Compound 30ab]
TGI MDA-MB-231 [1]: > 17.3 µM | GI50 [1]: > 17.3 µM | CC50 [1]: > 17.3 µM | TGI PSN1 [2]: > 17.3 µM | GI50 [2]: 8.3 µM | CC50 [2]: > 17.3 µM | TGI A549 [3]: > 17.3 µM | GI50 [3]: 12.7 µM | CC50 [3]: > 17.3 µM | TGI HT29 [4]: > 17.3 µM | GI50 [4]: > 17.3 µM | CC50 [4]: > 17.3 µM

Compound: O=C1NC(c2cccc([N+](=O)[O-])c2)=CCN1c1ccccc1O [Icilin]
EC50 (TRPM8): 0.005 µM

Compound: C[C@H](c1cc(F)cc(F)c1)N(C(=O)c1ccccc1)[C@@H](C(N)=O)c1ccccc1 [KPR-2579]
IC50 (TRPM8): 0.008 µM

Compound: CC1CCC(C(C)C)C(O)C1 (centres unmarked) [Menthol]
EC50 (TRPM8): 200 to 500 µM

Compound: C[C@H](c1ccc(F)cc1)N(Cc1cccc(C(=O)O)c1)C(=O)c1cnc2ccccc2c1 [PF-05105679]
IC50 (TRPM8): 0.181 µM

Compound: O=C(O)c1ccc(S(=O)(=O)N(Cc2ccc(OC(F)(F)F)cc2)c2ncc(C(F)(F)F)cc2Cl)cc1 [RQ 00203078]
IC50 (TRPM8): 0.0083 µM
